From PubChem BioAssay (NCI) come the findings set out here.

Test systems include SK-MEL-5 melanoma; NCI-H460 lung; EKVX NSCLC; OVCAR-8 ovarian; HS 578T breast; SF-268 CNS; TK-10 renal; SNB-19 CNS; K-562 leukemia; HT29 colon.
What all share (assay): growth of human tumour cells (NCI), 48 h

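48-hour exposure; five concentrations; linearly interpolated endpoints. TGI: total growth inhibition.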

On to `CCOC(=O)C1CCC(=O)N1C(=O)c1ccccc1` (stereo not given), for which the TGI with SK-MEL-5 melanoma, in the test with NCI-H460 lung, in the test on EKVX NSCLC, in the test with OVCAR-8 ovarian, in the test on HS 578T breast and in the test on SF-268 CNS was above 100 µM throughout. Further, the TGI in the test with TK-10 renal, in the test with SNB-19 CNS, in the test with K-562 leukemia and in the test with HT29 colon was above 100 µM throughout.

Consider `CCCCn1c(-c2ccc([N+](=O)[O-])cc2)cs/c1=N/N=C1\C(=O)Nc2ccc(Br)cc21`, for which the TGI in the test on SK-MEL-5 melanoma was 27.8 µM; in the test with NCI-H460 lung, 38.3 µM; with EKVX NSCLC, 79.3 µM; in the test on OVCAR-8 ovarian, above 100 µM; in the test with HS 578T breast, above 100 µM; in the test with SF-268 CNS it was above 100 µM. The TGI in the test with TK-10 renal stood at 34 µM; in the test on SNB-19 CNS it was 69.3 µM; in the test with K-562 leukemia, 73.1 µM; in the test on HT29 colon, 33.1 µM.

For `CO[C@]12C[C@H](CNC(=O)c3ccc[nH]3)O[C@H]1NC(=O)N2`, the TGI in the test on SK-MEL-5 melanoma, in the test on NCI-H460 lung, in the test on EKVX NSCLC, with OVCAR-8 ovarian, in the test on HS 578T breast and in the test on SF-268 CNS was above 100 µM throughout. For the same compound, the TGI with TK-10 renal, in the test on SNB-19 CNS, with K-562 leukemia and with HT29 colon was above 100 µM in each case.

As for `CNC(=O)CCCNC(=O)CCCC(=O)N(C)C`, the TGI in the test on SK-MEL-5 melanoma, in the test with NCI-H460 lung, with EKVX NSCLC, in the test with OVCAR-8 ovarian, with HS 578T breast and in the test with SF-268 CNS was above 100 µM each time. The TGI with TK-10 renal, with SNB-19 CNS, in the test on K-562 leukemia and in the test on HT29 colon was above 100 µM throughout.

As to `CC(C)OC(=O)OCSc1ccccc1N=Cc1cccc([N+](=O)[O-])c1`, the TGI in the test with SK-MEL-5 melanoma, in the test with NCI-H460 lung, in the test with EKVX NSCLC, with OVCAR-8 ovarian, with HS 578T breast and in the test with SF-268 CNS was above 10 µM each time. For the same compound, the TGI with TK-10 renal, with SNB-19 CNS, in the test with K-562 leukemia and in the test on HT29 colon was above 10 µM each time.

As for `[O-]/[N+](=C\c1ccccc1OC(=S)S)c1ccc(Cl)cc1`, the TGI in the test with SK-MEL-5 melanoma is above 100 µM; in the test with NCI-H460 lung, above 100 µM; in the test on EKVX NSCLC, above 100 µM; with OVCAR-8 ovarian, 30.2 µM; with HS 578T breast it was above 100 µM; in the test with SF-268 CNS it was 77.7 µM. Moreover, the TGI in the test with TK-10 renal, in the test on SNB-19 CNS, with K-562 leukemia and in the test with HT29 colon was above 100 µM each time.

Regarding `COc1cc(/C=C/C=C2\CC/C(=C\C=C\c3ccc(O)c(OC)c3)C2=O)ccc1O`, the TGI in the test on SK-MEL-5 melanoma, with NCI-H460 lung, in the test with EKVX NSCLC, with OVCAR-8 ovarian, in the test on HS 578T breast and in the test with SF-268 CNS was above 100 µM each time. For the same compound, the TGI is above 100 µM with TK-10 renal, above 100 µM in the test on SNB-19 CNS, 52.7 µM in the test with K-562 leukemia and above 100 µM with HT29 colon.

As for `Oc1[nH]c2ccccc2c1N=NC(=S)Nc1ccc(Cl)cc1`, the TGI was 63.4 µM in the test on SK-MEL-5 melanoma; above 100 µM with NCI-H460 lung; above 100 µM in the test on EKVX NSCLC; 98.8 µM in the test with OVCAR-8 ovarian; above 100 µM in the test on HS 578T breast; above 100 µM in the test on SF-268 CNS. Besides, the TGI with TK-10 renal was 94.1 µM; in the test with SNB-19 CNS it was above 100 µM; in the test with K-562 leukemia it was above 100 µM; with HT29 colon, above 100 µM.

As for `S=c1cc(-c2ccc3c(c2)OCO3)s[nH]1`, the TGI in the test on SK-MEL-5 melanoma, in the test on NCI-H460 lung, in the test on EKVX NSCLC, in the test with OVCAR-8 ovarian, with HS 578T breast and in the test on SF-268 CNS was above 100 µM in each case. Further, the TGI in the test with TK-10 renal, in the test on SNB-19 CNS, in the test with K-562 leukemia and in the test on HT29 colon was above 100 µM each time.

For `C\C(=N/N=C1/C(=C\N(C)C)C(=O)NC(=O)N1C)c1ccc(Cl)cc1`, the TGI with SK-MEL-5 melanoma, in the test on NCI-H460 lung, with EKVX NSCLC, in the test with OVCAR-8 ovarian, with HS 578T breast and in the test with SF-268 CNS was above 100 µM in each case. For the same compound, the TGI with TK-10 renal, in the test on SNB-19 CNS, with K-562 leukemia and with HT29 colon was above 100 µM throughout.

On to `COC(=O)[C@H](Cc1ccccc1)NC(=O)CCCCCCC(=O)NO`, for which the TGI in the test with SK-MEL-5 melanoma was 28.6 µM; in the test with NCI-H460 lung, 86 µM; in the test with EKVX NSCLC, above 100 µM; with OVCAR-8 ovarian, above 100 µM; with HS 578T breast it was above 100 µM; with SF-268 CNS, 72.1 µM. Also, the TGI in the test on TK-10 renal was 72.5 µM; in the test on SNB-19 CNS it was above 100 µM; in the test on K-562 leukemia, above 100 µM; in the test on HT29 colon, above 100 µM.

Take `C[n+]1c(-c2ccc(/C=C/C=N\NC(=O)c3ccc(C(=O)N/N=C\C=C\c4ccc(-c5cn6ccccc6[n+]5C)cc4)cc3)cc2)cn2ccccc21`: the TGI in the test on SK-MEL-5 melanoma, in the test with NCI-H460 lung, in the test with EKVX NSCLC, with OVCAR-8 ovarian, in the test on HS 578T breast and with SF-268 CNS was above 100 µM throughout. Moreover, the TGI in the test on TK-10 renal is above 100 µM; with SNB-19 CNS, above 100 µM; with K-562 leukemia, above 51.2 µM; with HT29 colon, above 100 µM.

For the compound `COc1ccc(N(C(=O)Nc2ccc(Cl)c(Cl)c2)C2c3cccn3C(=O)N2c2ccc(Cl)c(Cl)c2)cc1` (stereo not given), the TGI in the test on SK-MEL-5 melanoma, with NCI-H460 lung, with EKVX NSCLC, in the test with OVCAR-8 ovarian, in the test with HS 578T breast and in the test with SF-268 CNS was above 100 µM each time. Further, the TGI with TK-10 renal, with SNB-19 CNS, in the test on K-562 leukemia and in the test on HT29 colon was above 100 µM throughout.
